The subject of series [1] is Blood. As to the kind of experiment: Half life in 100% Homo sapiens (human) whole blood assessed as conversion to 1-Benzyl-3-{(bis(2-chloroethyl)amino)carbamoyl}pyridinium bromide at 10 x 10^-4 M by UV-spectrophotometric analysis. Type of series: ADME, tissue-based. The settings on record: 1000 µM.
Series [2] can be described thus: Half life in silver nitrate solution assessed as conversion to 1-Benzyl-3-{(bis(2-chloroethyl)amino)carbamoyl}pyridinium bromide at 5% after 2 min by UV-Visible spectrophotometric analysis. The class given is physicochemical.
Series [3] deals with Blood. As to the kind of experiment: Half life in 100% Rattus norvegicus (rat) whole blood assessed as conversion to 1-Benzyl-3-{(bis(2-chloroethyl)amino)carbamoyl}pyridinium bromide at 10 x 10^-4 M by UV-spectrophotometric analysis. The class given is ADME, tissue-based. The settings on record: 1000 µM.
Series [4] can be described thus: Stability of the compound assessed as decomposition at 4 degC after 60 days by UV spectrophotometric analysis. The class given is physicochemical. The settings on record: read-out: Drug degradation.
A short description of series [5]: Stability of the compound assessed as decomposition at 25 degC after 60 days by UV spectrophotometric analysis. The class given is physicochemical. The settings on record: read-out: Drug degradation.
Series [6] relates to Brain. As to the kind of experiment: Half life in Rattus norvegicus (rat) brain homogenate assessed as conversion to 1-Benzyl-3-{(bis(2-chloroethyl)amino)carbamoyl}pyridinium bromide at 6.25 x 10^-4 M by UV-spectrophotometric analysis. Type of series: ADME, tissue-based. The settings on record: 625 µM.
Series [7] deals with Brain. As to the kind of experiment: Half life in Rattus norvegicus (rat) brain homogenate assessed as conversion to 1-(4-Nitrobenzyl-3-{(bis(2-chloroethyl)amino)carbamoyl}pyridinium bromide at 6.25 x 10^-4 M by UV-spectrophotometric analysis. The class given is ADME, tissue-based. The settings on record: 625 µM.
The subject of series [8] is Blood. Nature of the series: Prodrug conversion in Sprague-Dawley Rattus norvegicus (rat) blood assessed as 1-(4-Nitrobenzyl-3-{(bis(2-chloroethyl)amino)carbamoyl}pyridinium bromide level at 40 mg/kg, iv measured at 60 min by UV-spectrophotometric analysis. The class given is ADME, organism-based. Also noted: dose 40 mg/kg, route intravenous. The settings on record: in vivo, 1 h.

In series [9] the test system is Brain. As to the kind of experiment: Prodrug conversion in Sprague-Dawley Rattus norvegicus (rat) brain homogenate assessed as 1-(4-Nitrobenzyl-3-{(bis(2-chloroethyl)amino)carbamoyl}pyridinium bromide level at 40 mg/kg, iv measured at 100 min by UV-spectrophotometric analysis. The class given is ADME, organism-based. Also noted: dose 40 mg/kg, route intravenous. The settings on record: in vivo.

For series [10], the system named is Blood. Nature of the series: Half life in 100% Homo sapiens (human) whole blood assessed as conversion to 1-(4-Nitrobenzyl-3-{(bis(2-chloroethyl)amino)carbamoyl}pyridinium bromide at 10 x 10^-4 M by UV-spectrophotometric analysis. The class given is ADME, tissue-based. The settings on record: 1000 µM.
In series [11] the test system is Blood. Nature of the series: Prodrug conversion in Sprague-Dawley Rattus norvegicus (rat) blood assessed as 1-(4-Nitrobenzyl-3-{(bis(2-chloroethyl)amino)carbamoyl}pyridinium bromide level at 40 mg/kg, iv measured at 15 min by UV-spectrophotometric analysis. Type of series: ADME, organism-based. Also noted: dose 40 mg/kg, route intravenous. The settings on record: in vivo, 0.25 h.

The test system of series [12] is Blood. As to the kind of experiment: Prodrug conversion in Sprague-Dawley Rattus norvegicus (rat) blood assessed as 1-(4-Nitrobenzyl-3-{(bis(2-chloroethyl)amino)carbamoyl}pyridinium bromide level at 40 mg/kg, iv measured at 30 min by UV-spectrophotometric analysis. Also noted: dose 40 mg/kg, route intravenous. The settings on record: in vivo, 0.5 h. Type of series: ADME, organism-based.

Series [13] has as its system Blood. As to the kind of experiment: Prodrug conversion in Sprague-Dawley Rattus norvegicus (rat) blood assessed as 1-(4-Nitrobenzyl-3-{(bis(2-chloroethyl)amino)carbamoyl}pyridinium bromide level at 40 mg/kg, iv measured at 150 min by UV-spectrophotometric analysis. Type of series: ADME, organism-based. Also noted: dose 40 mg/kg, route intravenous. The settings on record: in vivo, 2.5 h.

In series [14] the test system is Brain. As to the kind of experiment: Prodrug conversion in Sprague-Dawley Rattus norvegicus (rat) brain homogenate assessed as 1-(4-Nitrobenzyl-3-{(bis(2-chloroethyl)amino)carbamoyl}pyridinium bromide level at 40 mg/kg, iv measured at 60 min by UV-spectrophotometric analysis. The class given is ADME, organism-based. Also noted: dose 40 mg/kg, route intravenous. The settings on record: in vivo, 1 h.

The subject of series [15] is Brain. Nature of the series: Prodrug conversion in Sprague-Dawley Rattus norvegicus (rat) brain homogenate assessed as 1-(4-Nitrobenzyl-3-{(bis(2-chloroethyl)amino)carbamoyl}pyridinium bromide level at 40 mg/kg, iv measured at 15 min by UV-spectrophotometric analysis. The settings on record: in vivo, 0.25 h. Type of series: ADME, organism-based. Also noted: dose 40 mg/kg, route intravenous.

In series [16] the test system is Brain. As to the kind of experiment: Prodrug conversion in Sprague-Dawley Rattus norvegicus (rat) brain homogenate assessed as 1-(4-Nitrobenzyl-3-{(bis(2-chloroethyl)amino)carbamoyl}pyridinium bromide level at 40 mg/kg, iv measured at 150 min by UV-spectrophotometric analysis. Type of series: ADME, organism-based. Also noted: dose 40 mg/kg, route intravenous. The settings on record: in vivo, 2.5 h.

Series [17] has as its system Blood. Nature of the series: Prodrug conversion in Sprague-Dawley Rattus norvegicus (rat) blood assessed as assessed as 1-(4-Nitrobenzyl-3-{(bis(2-chloroethyl)amino)carbamoyl}pyridinium bromide level at 40 mg/kg, iv measured at 100 min by UV-spectrophotometric analysis. Type of series: ADME, organism-based. Also noted: dose 40 mg/kg, route intravenous. The settings on record: in vivo.

The test system of series [18] is Brain. As to the kind of experiment: Prodrug conversion in Sprague-Dawley Rattus norvegicus (rat) brain homogenate assessed as 1-(4-Nitrobenzyl-3-{(bis(2-chloroethyl)amino)carbamoyl}pyridinium bromide level at 40 mg/kg, iv measured at 30 min by UV-spectrophotometric analysis. Type of series: ADME, organism-based. Also noted: dose 40 mg/kg, route intravenous. The settings on record: in vivo, 0.5 h.

In series [19] the test system is Blood. As to the kind of experiment: Half life in 100% Rattus norvegicus (rat) whole blood assessed as conversion to 1-(4-Nitrobenzyl-3-{(bis(2-chloroethyl)amino)carbamoyl}pyridinium bromide at 10 x 10^-4 M by UV-spectrophotometric analysis. The settings on record: 1000 µM. The class given is ADME, tissue-based.
Series [20] in a line: Half life in silver nitrate solution assessed as conversion to1-(4-Nitrobenzyl-3-{(bis(2-chloroethyl)amino)carbamoyl}pyridinium bromide at 5% after 2 min by UV-Visible spectrophotometric analysis. The class given is physicochemical.
Series [21] in a line: Half life of the compound after 30 min by UV-spectrophotometric analysis in presence of 4-(4-nitrobenzyl)pyridine. Type of series: physicochemical.

What is called half-life is the time in which the quantity being followed falls by half.

`O=C(C1=CN(Cc2ccccc2)C=CC1)N(CCCl)CCCl`: the t1/2 worked out at 36 min in series [1], 5 min in series [2], 29 min in series [3] and 25 min in series [6]. Besides, the degraded at 1440 h in [4] is 9%; in series [5], 18%.
Turning to `O=C(C1=CN(Cc2ccc([N+](=O)[O-])cc2)C=CC1)N(CCCl)CCCl`, the t1/2 was found to be 31 min in [7], 39 min in [10], 34 min in series [19] and 7 min in series [20]. Moreover, the Drug metabolism in series [8] was 35 µg/mL; in series [9], 27 µg/g; in series [11], 60 µg/mL; in series [12] it was 48 µg/mL; in [13], 0 µg/mL; in series [14], 17 µg/g. The Drug metabolism in series [15] came to 4 µg/g; in series [16], 42 µg/g; in [17], 12 µg/mL; in series [18], 9 µg/g. The degraded at 1440 h in [4] came to 3%; in series [5] it was 8%.
With `O=C(c1ccc[n+](Cc2ccccc2)c1)N(CCCl)CCCl.[Br-]`, in series [21], the half-life turned out to be 14.7 min.
Turning to `O=C(c1ccc[n+](Cc2ccc([N+](=O)[O-])cc2)c1)N(CCCl)CCCl.[Br-]`, in series [21], the half-life worked out at 8.4 min.

These data come from ChEMBL document CHEMBL3046664, “Synthesis in vitro/in vivo evaluation and in silico physicochemical study of prodrug approach for brain targeting of alkylating agent” (Med Chem Res, 2013).
